Test results as given in article PMC5618418, “Pharmacokinetics of Jaspine B and Enhancement of Intestinal Absorption of Jaspine B in the Presence of Bile Acid in Rats” (Marine Drugs, 2017).
Where two headings read alike, the source gives them in different places.

Legend:
[1] = Cumulative urinary and fecal excretion in metabolic cage; assay type: in vivo; settings: rat, IV 10 mg/kg, 72 h; for dose excreted: feces and urine combined, read-out: recovery of unaltered Jaspine B from combined feces and urine
Method: In the experiment using metabolic cages, feces were collected at 12, 24, 48, and 72 h following the IV administration of Jaspine B (10 mg/kg). Aliquots of 50 μL of urine and 10% feces homogenates were stored at −80 °C until the analysis.
Aliquots (50 μL) of plasma, bile, feces homogenates, and urine samples were added to 250 μL of acetonitrile containing 0.5 ng/mL of berberine (an internal standard). After vortexing for 10 min and centrifugation at 13,200 rpm for 5 min, an aliquot (2 μL) of the supernatant was injected directly into the LC-MS/MS system. For the analysis of plasma concentration, the standard curve range was 25–5000 ng/mL and the concentrations of quality control (QC) samples were 75, 500, and 3000 ng/mL, as described previously. Concentrations of Jaspine B in urine, bile, and feces homogenates were 5–300 ng/mL, 20–5000 ng/mL, and 20–5000 ng/mL, respectively. The concentrations of QC samples were 15, 100, and 300 ng/mL for urine samples and 75, 500, and 3000 ng/mL for bile and feces homogenates.

[2] = Apparent partition coefficient between n-octanol and PBS; assay type: physicochemical; settings: n-octanol/PBS pH 7.4, 10 mM TC vs absence of TC, 25 °C
Method: The effect of TC on the apparent partition coefficients (APC) of Jaspine B between aqueous and organic phases was investigated. n-Octanol and phosphate-buffered saline (PBS, pH 7.4) were used as the organic and aqueous phases, respectively, in the partition study. n-Octanol and PBS were saturated with respect to one another prior to use. An equal volume of n-octanol was added to PBS (5 mL each) containing Jaspine B (10 mM) and TC (0, 0.1, 1, 10, or 100 mM) in a screw-capped test tube, and the mixture was vortexed vigorously for 5 min followed by shaking for 2 h at 25 °C in a temperature-controlled water bath. After standing for 1 h at 25 °C in the water bath, the mixture was separated into two phases by centrifugation at 3000 rpm for 10 min. The concentration of Jaspine B in a 50-μL aliquot of aqueous and organic phase was measured. Briefly, 50 μL of sample was added to 250 μL of acetonitrile containing 0.5 ng/mL of berberine. After vortexing for 10 min and centrifugation at 13,200 rpm for 5 min, an aliquot (2 μL) of the supernatant was injected directly into the LC-MS/MS system. The APC was calculated from the concentration ratio of each compound between the octanol and PBS phases.

[3] = Tissue distribution after intravenous administration; assay type: in vivo; settings: rat
Method: Jaspine B was dissolved in a vehicle containing DMSO: PEG400: saline (2:4:4, v/v/v) and IV-injected via the femoral vein at a dose of 10 mg/kg (vehicle volume, 1 mL/kg). Blood samples were collected from the abdominal artery and animals were euthanized at 0.5 h and 12 h after IV dosing. The blood, brain, liver, kidney, heart, and spleen were immediately excised, gently washed with ice-cold saline, and weighed. The tissue samples were homogenized with 9 volumes of saline. Aliquots of 50 μL of tissue homogenates and plasma were stored at −80 °C until the analysis.
Aliquots (50 μL) of plasma and tissue homogenates were added to 250 μL of acetonitrile containing 0.5 ng/mL of berberine. After vortexing for 10 min and centrifugation at 13,200 rpm for 5 min, an aliquot (2 μL) of the supernatant was injected directly into the LC-MS/MS system. For the analysis of plasma and tissue concentration, the standard curves with a range of 5–1000 ng/mL in the blank plasma and 10% bank tissue homogenates from brain, liver, kidney, heart, and spleen were prepared, and the concentrations of quality control (QC) samples of respective plasma and tissue homogenates were 25 and 750 ng/mL. The recovery of these spiked QC samples were in the range of 73.6–112.2% in all tissue homogenates. Intra- and inter-day precision and accuracy had coefficients of variance of less than 15%.

[4] = Stability of QC samples in plasma; design: species or system rat
Method: For the analytical validation of Jaspine B in plasma samples, the standard curve range was 25–5000 ng/mL and the concentrations of quality control (QC) samples were 75, 500, and 3000 ng/mL. The recovery of these spiked QC sample were in the range of 88.2–98.1%. Intra- and inter-day precision and accuracy had coefficients of variance of less than 10%. The stability of Jaspine B QC samples after 3 freeze thaw cycles were 83.9–94.4% and the short-term stability of these samples after standing for 6 h at room temperature was 94.3–100.1%.

[5] = Sprague-Dawley (SD), brain, IV 10 mg/kg, read-out: T/P ratio, brain
[6] = Sprague-Dawley (SD), kidney, IV 10 mg/kg, read-out: T/P ratio, kidney
[7] = Sprague-Dawley (SD), liver, IV 10 mg/kg, read-out: T/P ratio, liver

CCCCCCCCCCCCCC[C@@H]1OC[C@H](N)[C@@H]1O [Jaspine B]
dose excreted ([1]; SD (Sprague-Dawley)): 6.3% | dose excreted ([1]; Sprague-Dawley (SD)): ~6.3% | dose recovered from feces ([1]; metabolic cage): 4.7 ± 0.8% | dose recovered from urine ([1]; metabolic cage): 1.6 ± 0.7% | increase of partition coefficient [2]: 10 fold | Kp at 0.5 h [3, 5]: 6.2 | Kp at 12 h [3, 5]: 1.8 | Kp at 0.5 h ([3]; Sprague-Dawley (SD), heart, IV 10 mg/kg, read-out: T/P ratio, heart): 14.4 | Kp at 0.5 h [3, 6]: 11.1 | Kp at 12 h [3, 6]: 4.7 | Kp at 0.5 h [3, 7]: 2.3 | Kp at 12 h [3, 7]: 1.2 | Kp at 0.5 h ([3]; Sprague-Dawley (SD), spleen, IV 10 mg/kg, read-out: T/P ratio, spleen): 18.5 | Kp at 12 h ([3]; Sprague-Dawley, brain, kidney, heart, spleen, 10 mg/kg, single IV administration, read-out: T/P ratios in brain, kidney, heart and spleen): 2 to 4 | Kp at 12 h ([3]; Sprague-Dawley, heart, IV 10 mg/kg, read-out: T/P ratio, heart): 3.2 | Kp at 12 h ([3]; Sprague-Dawley, spleen, IV 10 mg/kg, read-out: T/P ratio, spleen): 3.9 | stability after 3 freeze thaw cycles ([4]; plasma QC samples 75, 500, 3000 ng/mL): 83.9–94.4% | short-term stability ([4]; plasma QC samples, 6 h at room temperature): 94.3–100.1%
